Read-outs that look alike come from different tables or passages of the source.
Experiments:
[1] = test system: genotype A, "Long" strain RSV; assay: RSV-A assay (CPE, ATPlite readout in Hep-2 cells); format: cell-based; conditions: human respiratory syncytial virus
Method in brief: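 Protection from RSV-induced cytopathic effect, measured as ATPlite luminescence after 5 days, gave EC50 values. Assay used genotype A Long strain at MOI 0.1 on Hep-2 cells seeded at 8,000/well in DMEM growth media with 10% FBS; compounds tested as 2-fold dilutions in duplicate.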

[2] = test system: recombinant HMPV CAN97-83 (MPV-GFP1); assay: HMPV antiviral assay (MPV-GFP1 eGFP fluorescence in Vero E6 cells); format: cell-based; conditions: human metapneumovirus, Vero C1008, 120 h, read-out: HMPV EC50
Method: HMPV antiviral activity was evaluated using a recombinant version of HMPV CAN97-83 engineered to contain the coding sequence for enhanced green fluorescence protein (eGFP) in the 3′ end of the virus genome (MPV-GFP1, ViraTree). Vero E6 cells ([…]) were seeded at a density of 12,000 cells/100 μL/well into 96-well cell plates one day prior to the assay. On the day of screening, the cell culture medium was aspirated from the wells and cells were washed twice with serum-free Eagle's Modified Essential Medium (EMEM, ATCC #) containing 1% penicillin-streptomycin (Invitrogen) (SF-EMEM). Cell washes were performed by dispensing 100 μL SF-EMEM per well and immediately aspirating the wash medium from the well. Following the second wash step, serum-free OptiMEM (Invitrogen, Cat No.) (SF-OptiMEM) containing 0.5 μg/mL TPCK-Trypsin (VENDOR) and 1% penicillin-streptomycin was added to the cells at 50 μL/well. Compounds were added into the 96-well plates using a JANUS automated liquid handling system (VENDOR). Compounds were initially diluted 1:50 into an intermediate 96-well plate containing SF-OptiMEM prior to transfer to the assay plate (25 μL/well). Each of the test compounds were tested in duplicate wells at final concentrations starting from 8 μM or 2 μM using ½ stepwise dilutions for a total of 8 points. Virus infection was performed by preparing a working stock of MPV-GFP1 at a multiplicity of infection (MOI) equal to 0.05/25 μL and aliquoting 25 μL of virus inoculum to the compound and positive control wells. SF-OptiMEM was added (25 μL/well) to the appropriate wells to serve as a virus-free negative control for the assay. The final DMSO concentration of all wells is 0.5%. Plates were incubated at 32° C., 5% CO2 for 5 days.
After 5 days incubation, eGFP fluorescence intensity was measured at […] using a Spectramax i3X plate reader (VENDOR). Percent viral inhibition was calculated using the following equation: y=[[…]−(XQ/XP)]×100 Where XQ is the fluorescence intensity measured in a well containing recombinant MPV-GFP1-infected, compound-treated cells and XP is the average fluorescence intensity measured in the wells containing untreated cells infected with recombinant virus. EC50 values were then calculated by non-linear regression using a four parameter curve logistic equation. The curve fit model employed was XLFit Dose Response One Site Model 200: y=(A+(B/(1+((x/C)^D)))) Where A is the minimum y value, B is the maximum y value, C is the log EC50 value, and D is the slope factor. […] EC50 ranges are as follows: A<0.5 μM; B>0.5 μM.

[3] = HEp-2, Hep-2 cells, genotype A "Long" strain RSV, MOI 0.1, read-out: Human RSV-A (“Long” strain) EC50

Row | Compound | EC50 [1, 3] [nM] | EC50 [2] [nM] | EC50 ([1]; HEp-2, read-out: Human RSV-A (“Long” strain) EC50) [nM]
1 | COc1cc(C(=O)NC[C@](O)(c2cc3c(c(-c4ccc(F)c(Cl)c4)n2)OC[C@]3(C)C(N)=O)C(F)(F)F)ccc1OC1CC1 [Example 88] | < 200 | < 500 | 
2 | COc1cc(C(=O)NC[C@](O)(c2cc3c(c(-c4ccc(F)cc4)n2)OC[C@]3(C)C(N)=O)C2CC2)cc2cc(C)cnc12 [Example 256] | < 200 | < 500 | 
3 | Cc1cnc2c(Nc3nccnn3)cc(C(=O)NC[C@](O)(c3cc4c(c(-c5ccc(F)cc5)n3)OC[C@]4(C)C(N)=O)C(F)(F)F)cc2c1 [Example 613] | < 200 | < 500 | 
4 | CNC(=O)[C@@]1(C)COc2c1cc([C@@](O)(CNC(=O)c1cc(OC)c3ncccc3c1)C(F)(F)F)nc2-c1ccc(F)cc1 [Example 46] | < 200 | < 500 | 
5 | COc1cc(C(=O)NC[C@](O)(c2cc3c(c(-c4ccc(F)cc4)n2)OC[C@]3(C)C(N)=O)C(F)(F)F)cc2c1OCCC2 [Example 508] | > 200 | < 500 | 
6 | COc1cc(C(=O)NC[C@](O)(c2cc3c(c(-c4ccc(F)cc4)n2)OC[C@]3(C)C(N)=O)C(F)(F)F)cc2sc(N)nc12 [Example 431] | < 200 | < 500 | 
7 | C[C@]1(CNCC2CC2)COc2c1cc([C@@](O)(CNC(=O)c1ccnc(C(F)(F)F)n1)C(F)(F)F)nc2-c1ccc(F)cc1 [Example 35] | > 200 | > 500 | 
8 | CCCNC(=O)COc1cc(C(=O)NC[C@](O)(c2cc3c(c(-c4ccc(F)cc4)n2)OC[C@]3(C)C(N)=O)C(F)(F)F)cc2cccnc12 [Example 374] | < 200 | < 500 | 
9 | C[C@]1(C(N)=O)COc2c1cc([C@@](O)(CNC(=O)c1ccc(OC3CC3)c(OC3CC3)c1)C(F)(F)F)nc2-c1ccc(F)c(C#N)c1 [Example 95] | < 200 | > 500 | 
10 | Cc1nc(C(=O)Nc2cc(C(=O)NC[C@](O)(c3cc4c(c(-c5ccc(F)cc5)n3)OC[C@]4(C)C(N)=O)C(F)(F)F)cc3cccnc23)co1 [Example 397] | < 200 | > 500 | 
11 | Cc1cnc2c(NC(=O)NC3(C)CC3)cc(C(=O)NC[C@](O)(c3cc4c(c(-c5ccc(F)cc5)n3)OC[C@]4(C)C(N)=O)C(F)(F)F)cc2c1 [Example 550] | < 200 | < 500 | 
12 | COc1nc2c(OC(C)C)cc(C(=O)NC[C@](O)(c3cc4c(c(-c5ccc(F)cc5)n3)OC[C@]4(C)C(N)=O)C(F)(F)F)cc2s1 [Example 444] | < 200 | > 500 | 
13 | Cc1ccc(-c2nc([C@@](O)(CNC(=O)c3ccc4nn(C)cc4c3)C(F)(F)F)cc3c2OC[C@]3(C)C(N)=O)cc1 [Example 641] | < 200 | > 500 | 
14 | C[C@]1(C(=O)NC2CC(O)C2)COc2c1cc([C@@](O)(CNC(=O)c1cc(OC3CC3)c3ncccc3c1)C(F)(F)F)nc2-c1ccc(F)cc1 (stereo partly drawn) [Example 467] | < 200 | < 500 | 
15 | CC(C)(CO)NC(=O)[C@@]1(C)COc2c1cc([C@@](O)(CNC(=O)c1cc(OC3CC3)c3ncccc3c1)C(F)(F)F)nc2-c1ccc(F)cc1 [Example 482] | < 200 | > 500 | 
16 | COc1cc(C(=O)NC[C@](O)(c2cc3c(c(-c4ccc(F)cc4)n2)OC[C@]3(C)C(N)=O)C(F)(F)F)cc2cc(C)c(C)nc12 [Example 533] | < 200 | < 500 | 
17 | C[C@]1(C(N)=O)COc2c1cc([C@@](O)(CNC(=O)c1ccc3ncc(Cl)cc3c1)C(F)(F)F)nc2-c1ccc(F)cc1 [Example 526] | < 200 | < 500 | 
18 | COc1cc(C(=O)NC[C@](O)(c2cc3c(c(-c4ccc(F)c(Cl)c4)n2)OC[C@]3(C)C(N)=O)C(F)(F)F)cc2cc(C3CC3)cnc12 [Example 532] | < 200 | < 500 | 
19 | Cc1cnc2c(NC(=O)c3cnc(C)o3)cc(C(=O)NC[C@](O)(c3cc4c(c(-c5ccc(F)cc5)n3)OC[C@]4(C)C(N)=O)C(F)(F)F)cc2c1 [Example 624] | < 200 | < 500 | 
20 | Cc1cnc2c(OC(=O)NC3(C)COC3)cc(C(=O)NC[C@](O)(c3cc4c(c(-c5ccc(F)cc5)n3)OC[C@]4(C)C(N)=O)C(F)(F)F)cc2c1 [Example 549] |  | > 500 | < 200

Row | Compound | EC50 [1, 3] [nM] | EC50 [2] [nM] | EC50 ([1]; HEp-2, read-out: Human RSV-A (“Long” strain) EC50) [nM]
21 | C[C@]1(C(N)=O)COc2c1cc([C@@](O)(CNC(=O)c1cc(OC(F)F)c3nc(N)sc3c1)C1CC1)nc2-c1ccc(F)cc1 [Example 539] | < 200 | < 500 | 
22 | Cc1cnc2c(NC(=O)C3CC3)cc(C(=O)NC[C@](O)(c3cc4c(c(-c5ccc(F)cc5)n3)OC[C@]4(C)C(N)=O)C(F)(F)F)cc2c1 [Example 416] | < 200 | > 500 | 
23 | Cc1nc2ccc(C(=O)NC[C@](O)(c3cc4c(c(-c5ccc(F)cc5)n3)OC[C@]4(C)C(N)=O)C(F)(F)F)cc2s1 [Example 430] | < 200 | < 500 | 
24 | C[C@]1(C(N)=O)COc2c1cc([C@@](O)(CNC(=O)c1cc(Oc3ccncc3)c3ncccc3c1)C(F)(F)F)nc2-c1ccc(F)cc1 [Example 388] | < 200 | > 500 | 
25 | C[C@]1(C(N)=O)COc2c1cc([C@@](O)(CNC(=O)c1cc(OCC(N)=O)c3ncccc3c1)C(F)(F)F)nc2-c1ccc(F)cc1 [Example 364] | < 200 | > 500 | 
26 | CC(C)(O)[C@H](F)CNC(=O)[C@@]1(C)COc2c1cc([C@@](O)(CNC(=O)c1cc(OC3CC3)c3ncccc3c1)C(F)(F)F)nc2-c1ccc(F)cc1 [Example 459] | < 200 | > 500 | 
27 | Cc1nc(-c2ccc(C(=O)NC[C@](O)(c3cc4c(c(-c5ccc(F)cc5)n3)OC[C@]4(C)C(N)=O)C(F)(F)F)cc2OC2CC2)co1 [Example 196] | > 200 | > 500 | 
28 | C[C@]1(C(N)=O)COc2c1cc([C@@](O)(CNC(=O)c1ccc(OC3CC3)c(OC3CC3)c1)C(F)(F)F)nc2-c1ccc(F)c(Cl)c1 [Example 90] | < 200 | < 500 | 
29 | C[C@]1(C(N)=O)COc2c1cc([C@@](O)(CNC(=O)c1cc(NC(N)=O)c3ncccc3c1)C(F)(F)F)nc2-c1ccc(F)cc1 [Example 408] | < 200 | > 500 | 
30 | COc1cc(C(=O)NC[C@](O)(c2cc3c(c(-c4ccc(F)c(Cl)c4)n2)OC[C@]3(C)C(N)=O)C(F)(F)F)cc2cc(C)c(C)nc12 [Example 534] | < 200 | < 500 | 
31 | COc1cc(C(=O)NC[C@](O)(c2cc3c(c(-c4ccc(F)cc4)n2)OC[C@]3(C)C(N)=O)C(F)(F)F)cc2ccc(C)nc12 [Example 222] | < 200 | < 500 | 
32 | COc1cc(C(=O)NC[C@](O)(c2cc3c(c(-c4ccc(F)cc4)n2)OC[C@]3(C)C(=O)NC2COC2)C(F)(F)F)cc2cccnc12 [Example 52] | < 200 | < 500 | 
33 | C[C@]1(C(N)=O)COc2c1cc([C@@](O)(CNC(=O)c1cc(OCc3ncco3)c3ncccc3c1)C(F)(F)F)nc2-c1ccc(F)cc1 [Example 390] | < 200 | > 500 | 
34 | COc1cc(C(=O)NC[C@](O)(c2cc3c(c(-c4ccc(F)c(F)c4)n2)OC[C@]3(C)C(N)=O)C(F)(F)F)cc2cccnc12 [Example 87] | < 200 | > 500 | 
35 | Cn1cc2cc(C(=O)NC[C@](O)(c3cc4c(c(-c5ccc(F)cc5)n3)OC[C@]4(C)C(=O)NCC(C)(C)O)C(F)(F)F)ccc2n1 [Example 640] | < 200 | > 500 | 
36 | Cc1cnc2c(Oc3ncccn3)cc(C(=O)NC[C@](O)(c3cc4c(c(-c5ccc(F)cc5)n3)OC[C@]4(C)C(N)=O)C(F)(F)F)cc2c1 [Example 615] | < 200 | > 500 | 
37 | C[C@]1(C(N)=O)COc2c1cc([C@@](O)(CNC(=O)c1ccc3ncc(F)cc3c1)C(F)(F)F)nc2-c1ccc(F)cc1 [Example 527] | < 200 | > 500 | 
38 | COc1cc(C(=O)NC[C@](O)(c2cc3c(c(-c4ccc(F)cc4)n2)OCC3(F)C(N)=O)C(F)(F)F)cc2cn(C3CC3)nc12 (stereo partly drawn) [Example 676] | < 200 | < 500 | 
39 | C[C@]1(C(N)=O)COc2c1cc([C@](O)(CNC(=O)c1cc(OC3CC3)c3ncccc3c1)C(F)(F)F)nc2-c1ccc(C(F)(F)F)cc1 [Example 82] | < 200 | > 500 | 
